Data on 6 molecules can be found in patent US20070049564A1 (Wyeth, priority 2005, published 2007).

Experiment [1] has as its system E. coli. The experiment can be described thus: Range of MIC for E. coli strains. Conditions: Escherichia coli.
For experiment [2], the system named is Staph. The experiment can be described thus: Range of MIC for Staph. strains, including MRSA. Conditions: Staphylococcus aureus, MRSA.
Setting [3] is: 20 h, read-out: Range of MIC, E. coli (Mouse Serum).
Where [4] appears, read: read-out: Range of MIC, E. coli (Water).
Where [5] appears, read: read-out: Range of MIC, Staph (Mouse Serum).
The mark [6] stands for this setting: read-out: Range of MIC, Staph (Water).

≈ marks a conversion by molar mass, not a printed value. Read-outs that look alike come from different tables or passages of the source. Bounds are passed on as bounds.

Turning to `CN(C)c1cc(NC(=O)CN(C(=O)OCOC(=O)/C=C/c2ccccc2)C(C)(C)C)c(O)c2c1C[C@H]1C[C@H]3[C@H](N(C)C)C(O)=C(C(N)=O)C(=O)[C@@]3(O)C(O)=C1C2=O` [Example 99, ({[(2-{[(5aR,6aS,7S,10aS)-9-(aminocarbonyl)-4,7-bis(dimethylamino)-1,8,10a,11-tetrahydroxy-10,12-dioxo-5,5a,6,6a,7,10,10a,12-octahydrotetracen-2-yl]amino}-2-oxoethyl)(tert-butyl)amino]carbonyl}oxy)methyl (2E)-3-phenylprop-2-enoate], the MIC was 1 to 2 mg/L (≈ 1.27 to 2.53 µM) in experiment [1] (setting [3]), > 64 mg/L in experiment [1] (setting [4]), 0.5 to 2 mg/L (≈ 0.633 to 2.53 µM) in experiment [2] (setting [5]) and 2 to 4 mg/L (≈ 2.53 to 5.06 µM) in experiment [2] (setting [6]).
For `COc1cc(OC)cc(C(=O)OCOC(=O)N(CC(=O)Nc2cc(N(C)C)c3c(c2O)C(=O)C2=C(O)[C@]4(O)C(=O)C(C(N)=O)=C(O)[C@@H](N(C)C)[C@@H]4C[C@@H]2C3)C(C)(C)C)c1` [Example 98, ({[(2-{[(5aR,6aS,7S,10aS)-9-(aminocarbonyl)-4,7-bis(dimethylamino)-1,8,10a,11-tetrahydroxy-10,12-dioxo-5,5a,6,6a,7,10,10a,12-octahydrotetracen-2-yl]amino}-2-oxoethyl)(tert-butyl)amino]carbonyl}oxy)methyl 3,5-dimethoxybenzoate] the same measures were 1 to 4 mg/L (≈ 1.21 to 4.86 µM), > 64 mg/L, 0.5 to 2 mg/L (≈ 0.607 to 2.43 µM) and 2 to 4 mg/L (≈ 2.43 to 4.86 µM).
As for `CN(C)c1cc(NC(=O)OCOC(=O)c2ccc(F)cc2)c(O)c2c1C[C@H]1C[C@H]3[C@H](N(C)C)C(O)=C(C(N)=O)C(=O)[C@@]3(O)C(O)=C1C2=O` [Example 76, [({[(5aR,6aS,7S,10aS)-9-(aminocarbonyl)-4,7-bis(dimethylamino)-1,8,10a, 1-tetrahydroxy-10,12-dioxo-5,5a,6,6a,7,10,10a,12-octahydrotetracen-2-yl]amino}carbonyl)oxy]methyl 4-fluorobenzoate], the MIC is > 64 mg/L in experiment [1] (setting [4]), 8 to 16 mg/L (≈ 12 to 23.9 µM) in experiment [2] (setting [5]) and 8 to 32 mg/L (≈ 12 to 47.9 µM) in experiment [2] (setting [6]).
On to `CN(C)c1cc(NC(=O)OCOC(=O)C(C)(C)C)c(O)c2c1C[C@H]1C[C@H]3[C@H](N(C)C)C(O)=C(C(N)=O)C(=O)[C@@]3(O)C(O)=C1C2=O` [Example 78, [({[(5aR,6aS,7S,10aS)-9-(aminocarbonyl)-4,7-bis(dimethylamino)-1,8,10a,11-tetrahydroxy-10,12-dioxo-5,5a,6,6a,7,10,10a,12-octahydrotetracen-2-yl]amino}carbonyl)oxy]methyl pivalate], for which the minimum inhibitory concentration (MIC) in experiment [1] (setting [3]) was 16 to 64 mg/L (≈ 25.4 to 101 µM); in experiment [1] (setting [4]), > 64 mg/L; in experiment [2] (setting [5]) it was 8 mg/L (≈ 12.7 µM); in experiment [2] (setting [6]), 8 to 32 mg/L (≈ 12.7 to 50.7 µM).
With `COc1ccc(C(=O)OCOC(=O)N(CC(=O)Nc2cc(N(C)C)c3c(c2O)C(=O)C2=C(O)[C@]4(O)C(=O)C(C(N)=O)=C(O)[C@@H](N(C)C)[C@@H]4C[C@@H]2C3)C(C)(C)C)cc1` [Example 72, ({[(2-{[(5aR,6aS,7S,10aS)-9-(aminocarbonyl)-4,7-bis(dimethylamino)-1,8,10a,11-tetrahydroxy-10,12-dioxo-5,5a,6,6a,7,10,10a,12-octahydrotetracen-2-yl]amino}-2-oxoethyl)(tert-butyl)amino]carbonyl}oxy)methyl 4-methoxybenzoate], the minimal inhibitory concentration (MIC) in experiment [1] (setting [3]) is 0.5 to 1 mg/L (≈ 0.63 to 1.26 µM); in experiment [1] (setting [4]), > 64 mg/L; in experiment [2] (setting [5]), 0.5 to 1 mg/L (≈ 0.63 to 1.26 µM); in experiment [2] (setting [6]) it was 4 to 8 mg/L (≈ 5.04 to 10.1 µM).
In the case of `CCC(C)(C)C(=O)OCOC(=O)Nc1cc(N(C)C)c2c(c1O)C(=O)C1=C(O)[C@]3(O)C(=O)C(C(N)=O)=C(O)[C@@H](N(C)C)[C@@H]3C[C@@H]1C2` [Example 80, [({[(5aR,6aS,7S,10aS)-9-(aminocarbonyl)-4,7-bis(dimethylamino)-1,8,10a,11-tetrahydroxy-10,12-dioxo-5,5a,6,6a,7,10,10a,12-octahydrotetracen-2-yl]amino}carbonyl)oxy]methyl 2,2-dimethylbutanoate], the minimal inhibitory concentration (MIC) in experiment [2] (setting [5]) was 4 to 8 mg/L (≈ 6.2 to 12.4 µM); in experiment [2] (setting [6]), 4 to 16 mg/L (≈ 6.2 to 24.8 µM).

As usually defined, the MIC is the smallest concentration in the dilution series that meets the test's criterion for growth inhibition.
